Measurements reported in PMC3351437, “Skin-Targeted Inhibition of PPAR β/δ by Selective Antagonists to Treat PPAR β/δ – Mediated Psoriasis-Like Skin Disease In Vivo” (PLoS ONE, 2012).
Where two headings read alike, the source gives them in different places. Values belong to the molecule of their own block, whether it stands above or below them.

Legend:
[1] = Drug quantification in skin and blood of diseased mice (mass spectrometry); assay type: in vivo, PPAR β/δ transgenic mice; conditions: for concentration at 12 h: 12 h after the last cream application
Description: (§1) 50 µL of cardiac blood were diluted 1∶2 (v∶v) with milipore water and snap frozen immediately. Previously treated skin segments were shaved, tape-stripped three times to remove residual hair and non-absorbed ointment on the surface, and then snap frozen in liquid nitrogen. Frozen skin was ground and ten times the volume of methanol-water (1∶1 v/v) was added per weight unit of skin. A minimum of 20 mg of skin was used per each sample. Samples were homogenized with a Covaris S2 acoustic homogeniser. For both cardiac blood and skin homogenate, proteins were precipitated by adding 3 volumes of acetonitrile containing a suitable internal standard. All samples were then centrifuged for 10 minutes at 2800 rpm before transfer of 200 µL of supernatant into a 96 well plate and 100 µL of milliQ water added. Calibration curves were constructed in either untreated homogenised skin or blood to cover at least 3 orders of magnitude (1–2000 ng/mL) and extracted as for aforementioned study samples. All cardiac blood, skin samples and standards were then investigated by mass spectrometry as described below. For calculation of total blood volume, mice were weighed and an average blood volume of 7% (mL/g) of body mass was assumed.
(§2) An Acquity ultra high performance liquid chromatography (UPLC) system; consisting of an autosampler, the Acquity UPLC Sample Manager with Sample Organiser, a pump, the Acquity UPLC Binary Solvent Manager, an in-built column oven, a UV detector, the Acquity UPLC Photo Diode Array) and a Quattro Premier XE triple quadrupole mass spectrometer (Waters, UK). […] The analytical column was an Acquity UPLC BEH C18, 2.1 mm i.d. ×50 mm length, 1.7 µm particle size (Waters, UK). No guard column was used, but a vanguard […].
(§3) Mobile phase A was Milli-Q reverse phase de-ionised water with formic acid (0.1%, v∶v), mobile phase B was acetonitrile with formic acid (0.1%, v∶v). Mobile phase was delivered at a flow rate of 0.6 mL/min. […] Finally mobile phase B was returned to 5% over 0.1 min and maintained at this composition for 0.4 min. Total run time 3 min.
(§4) The entire flow was introduced into the Mass spectrometer. The autosampler was set at 4°C and an injection voloume of 5 µL was used (partial loop). […] An in-house proprietary internal standard was used for determination of all 3 analytes.

[2] = Skin concentration after topical application (UPLC/mass spectrometry); assay type: in vivo, C57Bl/6j wild type mice; conditions: for local concentration in skin at steady state: twice daily for seven days, even for the lower dose used (0.2%), 1 h after last application
Description: as §1, §2
as §3, with “3 min. […]” for “3 min.”

[3] = Blood concentration after topical application (UPLC/mass spectrometry); assay type: in vivo, C57Bl/6j wild type mice; conditions: for total amount of detectable compound in blood as fraction of total drug applied: 1 h after topical application, blood volume assumed 7% of body mass
Description: as §1, §2, §3, §4

other PPAR isoforms = tested on: other PPAR isoforms; parameters: method as in references listed in Figure 1 / ref 13; conditions: in vitro data taken from literature, ref references listed in Figure 1 / ref 13, cited from earlier work
[4] = tested on: HB-EGF, IL1b, LCE3e/LCE3f expression; test: Real-time PCR of PPAR β/δ target genes in skin; assay type: in vivo, PPAR β/δ transgenic mice
Source text: Skin was processed by removing subcutaneous tissue and small skin pieces were snap frozen in liquid nitrogen. Frozen skin was ground and RNA was extracted using the NucleoSpin RNA/Protein kit from Macherey-Nagel. cDNA synthesis was done with the SuperScript Vilo cDNA synthesis kit from Invitrogen. Gene expression levels were quantified using TaqMan-based real-time PCR using Assays-on-Demand kits obtained from Applied biosystems according to the manufacturer's instruction and quantification performed as calibrated to the internal housekeeping gene GAPDH (LCE3f: Mm02605425, Il1β: Mm01336189, Hb-EGF: Mm00439305).

[5] = Drug solubility in ointment, absence of crystals by polarised microscopy; assay type: physicochemical; conditions: Hydromol ointment with DMSO
Description: These included drug incorporation into liquified vehicle at 70°C, pre-disolvement in DMSO, ethanol, isopropanol, polyethyene glycol 300, and olive oil followed by vehicle incorporation, as well as a variety of vehicles (liquid paraffin, Hydromol ointment, aqueous ointment BP). Drug solubility was assessed using a previously reported method relying on the absence of crystals detectable by polarised microscopy.
All PPAR β/δ antagonists were custom-synthesized by AF-Chempharm (UK). […] Compound 3 h was pre-dissolved in DMSO, left at room temperature for 20 min at low agitation and then incorporated into Hydromol ointment using a melamin bowl to yield final concentrations of 0.5% (w/w) 3 h, and 5% (w/w) of DMSO, respectively. […] Vehicle-only contro ointment was prepared exactly as GSK0660 ointment while omitting the chemical itself. Ointments were stored in airtight containers at 4°C in the dark and made fresh once a week.

shaved dorsal skin = test: Skin histology after one week of topical application (inflammatory changes); assay type: in vivo, C57Bl/6j wild type mice; conditions: for number of dermal nuclei per high power field: vs vehicle-only treated skin; for epidermal hyperplasia induced by antagonist: twice daily for one week
Description: We next determined the local concentrations in skin at steady state after prolonged topical application. […] Skin samples were then extracted and analysed by mass spectrometry for concentration determination as well as processed for histology. […] 90 min (cf. fig. 2b). […] Infrequently, we noted apoptotic epidermal keratinocytes (inset, middle row of H&E sections). Since these cells were also found in transgenic PPAR β/δ mice treated with the agonist only (figure S1), the exact underlying cause is unclear but unlikely to underlie the treatment effect of the antagonist creams.
Figure 4 Absence of inflammatory changes induced by PPAR β/δ antagonists in skin after topical application. […] Mice were sacrificed 1 h after the last ointment application and skin tissue processed for H&E based histology and mass spectrometry, as described in Methods. Data shown represent average ± s.d. of n = 3 mice per data point (left) treated with GSK (blue columns) or compound 3 h (red). Representative histology sections of all treated mice are shown on right. […] Horizontal bar represents 5 µm.
(§5) Mice were sacrificed, skin samples obtained and processed for H&E based histology as described. All samples were photographed at 200× magnification. Epidermal thickness was measured for all slides by a blinded observer at perpendicular angle to the basement membrane. The absence of variable planes of tissue sectioning as a confounder for apparent epidermal thickness was ruled out by verifying visible perpendicular insertion of hair follicles into the epidermis. For each sample, two measurements were taken in two separately photographed non-adjacent sections of the H&E stained skin sample.

[6] = parameters: method as in PMID 17975020; conditions: cited from earlier work
[7] = Storage stability at room temperature and light exposure; assay type: physicochemical
PPARβ/δ [8] = conditions: cited from earlier work; for IC50: in vitro data taken from literature, ref references listed in Figure 1, read-out: IC50 PPARβ/δ binding
[9] = tested on: PPAR β/δ mediated skin disease; test: Control of skin disease induced by i.p. GW501516, ointment at different frequencies; assay type: in vivo, PPAR β/δ transgenic mice
Description: All animal studies reported here were subject to approval of Tayside Research Ethics Committee, and are conducted in accordance with UK Home Office procedures (project licence 60/3800, licence holder JF). Breeding of PPAR β/δ transgenic mice and genotyping were all carried out as described previously. […]
as §5, with “The absence of variable planes of tissue sectioning as a confounder for apparent epidermal thickness was ruled out by verifying visible perpendicular insertion of hair follicles into the epidermis.” left out

PPARβ/δ [10] = conditions: in vitro data taken from literature; ref references listed in Figure 1; read-out: EC50 PPARβ/δ competitive antagonism; cited from earlier work
[11] = tested on: PPAR β/δ mediated psoriasis-like skin disease; test: Prevention of epidermal hyperplasia, agonist GW501516 and antagonist both topical; assay type: in vivo, PPAR β/δ transgenic mice; conditions: antagonist ointment once per day, GW501516 0.1% ointment five times per week, 20 days
Description: as §5, with “The absence of variable planes of tissue sectioning as a confounder for apparent epidermal thickness was ruled out by verifying visible perpendicular insertion of hair follicles into the epidermis.” left out

psoriasis (PASI scores) = tested on: psoriasis (PASI scores); parameters: method as in PMID 15479756; conditions: systemic administration; cited from earlier work
psoriasis = tested on: psoriasis; parameters: method as in PMID 12673084; conditions: cited from earlier work
PPAR β/δ = tested on: PPAR β/δ; parameters: method as in PMID 17488971; conditions: cited from earlier work

SMILES: COC(=O)c1sccc1S(=O)(=O)Nc1ccc(Nc2ccccc2)cc1OC [GSK0660]
concentration at 12 h ([1]; PPAR β/δ transgenic, mouse, skin, topical, after 20 days of treatment, read-out: concentration in skin tissue): 48 ± 18 ng/g
concentration at 12 h ([1]; PPAR β/δ transgenic, mouse, whole blood, topical, after 20 days, threshold of detection, read-out: concentration in blood): < 25 nM
half-life ([2]; C57Bl/6j, mouse, topical, 42 mg ointment applied to dorsal skin (figure 3)): ~1.5 h
local concentration in skin at steady state [2]: high local concentrations
total amount of detectable compound in blood as fraction of total drug applied [3]: less than 0.01%
drug accumulation in blood ([3]; blood measured for 24 h after drug application): no evidence of drug accumulation
total drug detectable in blood as fraction of total drug applied ([3]; over 24 h after drug application (figure 2b)): less than 0.01%
Activity on other PPAR isoforms (other PPAR isoforms): Not active at 10 μM
reversal of IL1b expression ([4]; qPCR, oral GW501516, ointment twice daily three weeks): only observed using the ointment containing GSK0660
drug concentration up to which the optimised ointment formulation is devoid of drug crystals [5]: up to 2 % (w/w)
apoptotic epidermal keratinocytes (shaved dorsal skin; one week, H&E): apoptotic looking cells
number of dermal nuclei per high power field (shaved dorsal skin; one week): unchanged as compared to vehicle-only treated skin
epidermal hyperplasia induced by antagonist (shaved dorsal skin; H&E): neither antagonist produced notable epidermal hyperplasia
bioavailability upon systemic administration [6]: lack of bioavailability upon systemic administration
stability on storage (colour change) [7]: visible colour change from yellow to green

tissue level of unmodified drug in lesional skin ([1]; 16 h after the final application): 240 ± 116 nmol/g of tissue
concentration at 16 h ([1]; PPAR β/δ transgenic, mouse, whole blood, topical, inflamed skin, 16 h after last cream application, read-out: concentration in blood at the end of the experiment): 445 ± 429 nM
concentration at 20 days ([3]; C57Bl/6j, mouse, whole blood, topical, healthy mice after 20 days of twice-daily treatment, n = 3): 50.2 ± 25.7 nM
SMILES: O=C(NCCS(=O)(=O)c1ccc(C(F)(F)F)cn1)c1ccc(Cl)cc1 [GSK3787]
mode of receptor inactivation (PPARβ/δ [8]): irreversibly inactivates the receptor by forming a covalent bond
IC50 (PPARβ/δ [8]): 6.7 nM
Activity on other PPAR isoforms (other PPAR isoforms): Active on PPARγ at 1 μM
expression of PPAR β/δ target genes LCE3f, IL1-beta, and HBEGF ([4]; twice-daily versus three times weekly application (fig. 8b)): suppression
range of therapeutic activity ([9]; H&E of treated area and its edge (figure S2)): efficacy was limited to the area of cream application
reducing the amount of dermal infiltrate ([9]; even when applied only 3× per week (fig. 7b)): as effective as GSK0660
preventing epidermal hyperplasia ([9]; even when applied only 3× per week, comparator twice daily (fig. 7a)): as effective as GSK0660
EC50 (PPARβ/δ [10]): 100 nM

systemic absorption relative to the antagonists ([3]; 1 h post application, ointment concentrated 10-fold less (0.1%)): 100 fold
peak serum concentration ([3]; 1 h post topical application, 0.1% ointment): 400 nM
SMILES: Cc1cc(SCc2sc(-c3ccc(C(F)(F)F)cc3)nc2C)ccc1OCC(=O)O [GW501516]

SMILES: CCCCOc1ccc(-c2ccc(C(=O)O)cc2C)cc1CNC(=O)c1ccc(C(F)(F)F)cc1F [compound 3 h]
local concentration in skin at steady state [2]: high local concentrations
peak systemic concentration compared with reported EC50/IC50 ([3]; 1 h after topical application of ointment): slightly above the in vitro determined EC50 value
total amount of detectable compound in blood as fraction of total drug applied [3]: less than 0.01%
IC50 (PPARβ/δ [8]): 10 nM
Ki (PPARβ/δ [8]; low reported Ki): 11 nM
Activity on other PPAR isoforms (other PPAR isoforms; listed as Compound 3 h): lack of activity on other PPAR isoforms
Activity on other PPAR isoforms (other PPAR isoforms; listed as Compound 3h): Not active at 1 μM
drug concentration up to which the optimised ointment formulation is devoid of drug crystals [5]: up to 2 % (w/w)
number of dermal nuclei per high power field (shaved dorsal skin; one week): unchanged as compared to vehicle-only treated skin
epidermal hyperplasia induced by antagonist (shaved dorsal skin; H&E): neither antagonist produced notable epidermal hyperplasia
EC50 (PPARβ/δ [10]): 11 nM
psoriasis-like epidermal hyperplasia induced by GW501516 [11]: significantly attenuated

SMILES: CCc1ccc(CCOc2ccc(CC3SC(=O)NC3=O)cc2)nc1 (centres unmarked) [pioglitazone]
effect on PASI scores (psoriasis (PASI scores)): no marked reduction of PASI scores

SMILES: CN(CCOc1ccc(CC2SC(=O)NC2=O)cc1)c1ccccn1 (centres unmarked) [rosiglitazone]
effect of topical application on psoriasis (psoriasis): showed no effect
activation of PPAR β/δ (PPAR β/δ): can also activate PPAR β/δ

SMILES: CCCCCCCCCCCCCCSCC(=O)O [tetradecylthioacetic acid (TTA), tetradecylthioacetic acid]
effect of topical application on psoriasis (psoriasis): showed no effect
